Experimental data as given in US9115143B2, “Substituted indole derivatives as gamma secretase modulators” (Janssen Pharmaceuticals, Inc., priority 2011, dated 2015).

Columns and labels:
[1] = test system: Aβ42; experiment: In vivo efficacy B-1a: brain soluble Aβ42 in non-transgenic rodents, ELISA; design: species or system mouse; details: dose 30 mg/kg oral dosing, brain soluble fraction, untreated animals (Ctrl) set at 100; for response vs control in vivo at 30 mg/kg: Mus musculus, po, read-out: Aβ42 (% vs Ctrl)_Mean
From the text: (§1) To determine whether acute administration of an Aβ42 lowering agent would reduce Aβ42 levels in vivo, non-transgenic rodents, e.g. mice or rats were used. Animals treated with the Aβ42 lowering agent were examined and compared to those untreated or treated with vehicle and brain levels of soluble Aβ42 and total Aβ were quantitated by standard techniques, for example, using ELISA. Treatment periods varied from hours (h) to days and were adjusted based on the results of the Aβ42 lowering once a time course of onset of effect could be established.
(§2) A typical protocol for measuring Aβ42 lowering in vivo is shown but it is only one of many variations that could be used to optimize the levels of detectable Aβ. For example, Aβ42 lowering compounds were formulated in 20% of Captisol® (a sulfobutyl ether of β-cyclodextrin) in water or 20% hydroxypropyl β cyclodextrin. The Aβ42 lowering agents were administered as a single oral dose or by any acceptable route of administration to overnight fasted animals. After 4 h, the animals were sacrificed and Aβ42 levels were analysed.
(§3) Blood was collected by decapitation and exsanguinations in EDTA-treated collection tubes. Blood was centrifuged at 1900 g for 10 minutes (min) at 4° C. and the plasma recovered and flash frozen for later analysis. The brain was removed from the cranium and hindbrain. The cerebellum was removed and the left and right hemisphere were separated. The left hemisphere was stored at −18° C. for quantitative analysis of test compound levels. The right hemisphere was rinsed with phosphate-buffered saline (PBS) buffer and immediately frozen on dry ice and stored at −80° C. until homogenization for biochemical assays.
(§4) Mouse brains from non-transgenic animals were resuspended in 8 volumes of 0.4% DEA (diethylamine)/50 mM NaCl containing protease inhibitors (Roche-11873580001 or 04693159001) per gram of tissue, e.g. for 0.158 g brain, add 1.264 mL of 0.4% DEA. All samples were homogenized in the FastPrep-24 system (MP Biomedicals) using lysing matrix D (MPBio #6913-100) at 6 m/s for 20 seconds. Homogenates were centrifuged at 20800×g for 5 min and supernatants collected. Supernatants were centrifuged at 221.300×g for 50 min. The resulting high speed supernatants were then transferred to fresh eppendorf tubes. Nine parts of supernatant were neutralized with 1 part 0.5 M Tris-HCl pH 6.8 and used to quantify Aβtotal and Aβ42.
(§5) To quantify the amount of Aβtotal and Aβ42 in the soluble fraction of the brain homogenates, Enzyme-Linked-Immunosorbent-Assays were used. Briefly, the standards (a dilution of synthetic Aβ1-40 and Aβ1-42, Bachem) were prepared in 1.5 mL Eppendorf tube in Ultraculture, with final concentrations ranging from 10000 to 0.3 pg/mL. The samples and standards were co-incubated with HRPO-labelled N-terminal antibody JRF/rAμ/2 for Aβ42 detection and with the biotinylated mid-domain antibody 4G8 for Aβtotal detection. 50 μl of conjugate/sample or conjugate/standards mixtures were then added to the antibody-coated plate (the capture antibodies selectively recognize the C-terminal end of Aβ42, antibody JRF/cAβ42/26, for Aβ42 detection and the N-terminus of AB, antibody JRF/rAβ/2, for Aβtotal detection). The plate was allowed to incubate overnight at 4° C. in order to allow formation of the antibody-amyloid complex. Following this incubation and subsequent wash steps the ELISA for Aβ42 quantification was finished by addition of Quanta Blu fluorogenic peroxidase substrate according to the manufacturer's instructions (Pierce Corp., Rockford, Ill.). A reading was performed after 10 to 15 min (excitation 320 nm/emission 420 nm).
In this model a Aβ42 lowering compared to untreated animals would be advantageous, in particular a Aβ42 lowering with at least 10%, more in particular a Aβ42 lowering with at least 20%.
The results are shown in Table 4 (dose 30 mg/kg oral dosing) (value for untreated animals as control (Ctrl) was set at 100): […]

[2] = test system: Aβtotal; experiment: In vivo efficacy B-1a/B-2a: brain soluble Aβtotal in non-transgenic rodents, ELISA; design: species or system mouse; details: dose 30 mg/kg oral dosing, brain soluble fraction, untreated animals (Ctrl) set at 100; for response vs control in vivo at 30 mg/kg: Mus musculus, po, 4 h, read-out: Aβtotal (% vs Ctrl)_Mean
From the text: as §1, §2, §3, §4, §5
For Aβtotal detection, a Streptavidine-Peroxidase-Conjugate was added, followed 60 min later by an additional wash step and addition of Quanta Blu fluorogenic peroxidase substrate according to the manufacturer's instructions (Pierce Corp., Rockford, Ill.). A reading was performed after 10 to 15 min (excitation 320 nm/emission 420 nm). […]

Structure (SMILES)	response vs control in vivo at 30 mg/kg [1] [%]	response vs control in vivo at 30 mg/kg [2] [%]	other results
Cc1cn(-c2ccc3[nH]c(-c4nc5n(n4)CCOC5c4ccc(F)cc4C)cc3c2)cn1 (centres unmarked) [Compound 39, 8-(4-fluoro-2-methylphenyl)-5,6-dihydro-2-[5-(4-methyl-1H-imidazol-1-yl)-1H-indo-2-yl]-8H-[1,2,4]triazolo[5,1-c][1,4]oxazine]			Aβ42 (% vs Ctrl)_Mean [1]: 74 % vs Ctrl; Aβtotal (% vs Ctrl)_Mean [2]: 99 % vs Ctrl
Cc1cn(-c2cc3cc(-c4nc5n(n4)CCCC5c4ccc(F)cc4C)[nH]c3cn2)cn1 (centres unmarked) [Compound 71, 8-(4-fluoro-2-methylphenyl)-5,6,7,8-tetrahydro-2-[5-(4-methyl-1H-imidazol-1-yl)-1H-pyrrolo[2,3-c]pyridin-2-yl]-[1,2,4]triazolo[1,5-a]pyridine]	108	115	
COc1c(C#N)ccc2[nH]c(-c3nc4n(n3)CCOC4c3ccc(F)cc3C)cc12 (centres unmarked) [Compound 111, 2-[8-(4-fluoro-2-methylphenyl)-5,6-dihydro-8H-[1,2,4]triazolo[5,1-c][1,4]oxazin-2-yl]-4-methoxy-1H-indole-5-carbonitrile]	87	120	
COc1c(C#N)ccc2[nH]c(-c3nc4n(n3)CCCC4c3ccccc3C(F)(F)F)cc12 (centres unmarked) [Compound 7, 4-methoxy-2-[5,6,7,8-tetrahydro-8-[2-(trifluoromethyl)phenyl][1,2,4]triazolo[1,5-a]pyridin-2-yl]-1H-indole-5-carbonitrile]	82	96	
Cc1cn(-c2ccc3[nH]c(-c4nc5n(n4)CCOC5c4ccccc4C(F)(F)F)cc3c2)cn1 (centres unmarked) [Compound 37, 5,6-dihydro-2-[5-(4-methyl-1H-imidazol-1-yl)-1H-indol-2-yl]-8-[2-(trifluoromethyl)phenyl]-8H-[1,2,4]triazolo[5,1-c][1,4]oxazine]	64	93	
COc1c(C#N)ccc2[nH]c(-c3cn4c(n3)C(c3ccc(F)cc3C)OCC4)cc12 (centres unmarked) [Compound 47, 2-[8-(4-fluoro-2-methylphenyl)-5,6-dihydro-8H-imidazo[2,1-c][1,4]oxazin-2-yl]-4-methoxy-1H-indole-5-carbonitrile]			Aβ42 (% vs Ctrl)_Mean ([1]; 30 mg/kg): 45 % vs Ctrl; Aβtotal (% vs Ctrl)_Mean ([2]; 30 mg/kg): 117 % vs Ctrl
N#Cc1ccc2[nH]c(-c3cn4c(n3)C(c3ccccc3Cl)CCC4)cc2c1 (centres unmarked) [Compound 16, 2-[8-(2-chlorophenyl)-5,6,7,8-tetrahydroimidazo[1,2-a]pyridin-2-yl]-1H-indole-5-carbonitrile]	74	95	
Cc1cn(-c2ccc3[nH]c(-c4nc5n(n4)CCCC5c4ccc(F)cc4C)cc3c2)cn1 (single isomer, unassigned) [Compound 77, 8-(4-fluoro-2-methylphenyl)-5,6,7,8-tetrahydro-2-[5-(4-methyl-1H-imidazol-1-yl)-1H-indol-2-yl]-[1,2,4]triazolo[1,5-a]pyridine]	104	102	
COc1c(C#N)ccc2[nH]c(-c3nc4n(n3)CCOC4c3c(F)cccc3Cl)cc12 (single isomer, unassigned) [Compound 117, 2-[8-(2-chloro-6-fluorophenyl)-5,6-dihydro-8H-[1,2,4]triazolo[5,1-c][1,4]oxazin-2-yl]-4-methoxy-1H-indole-5-carbonitrile]	63	103	
N#Cc1ccc2[nH]c(-c3nc4n(n3)CCCC4c3ccccc3C(F)(F)F)cc2c1 (centres unmarked) [Compound 18, 2-[5,6,7,8-tetrahydro-8-[2-(trifluoromethyl)phenyl][1,2,4]triazolo[1,5-a]pyridin-2-yl]-1H-indole-5-carbonitrile]	88	102	
Cc1cn(-c2cc3cc(-c4nc5n(n4)CCCC5c4ccccc4C)[nH]c3cn2)cn1 (centres unmarked) [Compound 30, 5,6,7,8-tetrahydro-2-[5-(4-methyl-1H-imidazol-1-yl)-1H-pyrrolo[2,3-c]pyridin-2-yl]-8-(2-methylphenyl)-[1,2,4]triazolo[1,5-a]pyridine]	91	97	
Cc1ccccc1C1CCCn2nc(-c3cc4cc(C#N)ccc4[nH]3)nc21 (centres unmarked) [Compound 12, 2-[5,6,7,8-tetrahydro-8-(2-methylphenyl)[1,2,4]triazolo[1,5-a]pyridin-2-yl]-1H-indole-5-carbonitrile]			Aβ42 (% vs Ctrl)_Mean ([1]; 30 mg/kg): 94 % vs Ctrl; Aβtotal (% vs Ctrl)_Mean ([2]; 30 mg/kg): 91 % vs Ctrl
Cc1cc(F)ccc1C1OCCn2cc(-c3cc4nc(-c5cnn(C)c5)ccc4[nH]3)nc21 (single isomer, unassigned) [Compound 102, 8-(4-fluoro-2-methylphenyl)-5,6-dihydro-2-[5-(1-methyl-1H-pyrazol-4-yl)-1H-pyrrolo[3,2-b]pyridin-2-yl]-8H-imidazo[2,1-c][1,4]oxazine]	98	121	
Cc1cn(-c2ccc3[nH]c(-c4nc5n(n4)CCCC5c4ccc(F)cc4C)cc3n2)cn1 (centres unmarked) [Compound 65, 8-(4-fluoro-2-methylphenyl)-5,6,7,8-tetrahydro-2-[5-(4-methyl-1H-imidazol-1-yl)-1H-pyrrolo[3,2-b]pyridin-2-yl]-[1,2,4]triazolo[1,5-a]pyridine]	82	108	
Cc1cc(-c2ccc3[nH]c(-c4nc5n(n4)CCCC5c4ccccc4C)cc3n2)ccn1 (centres unmarked) [Compound 6, 5,6,7,8-tetrahydro-8-(2-methylphenyl)-2-[5-(2-methyl-4-pyridinyl)-1H-pyrrolo[3,2-b]pyridin-2-yl]-[1,2,4]triazolo[1,5-a]pyridine]	79	87	
Cc1cc(F)ccc1C1CCCn2nc(-c3[nH]c4ccc(C#N)cc4c3F)nc21 (single isomer, unassigned) [Compound 182, 3-fluoro-2-[8-(4-fluoro-2-methylphenyl)-5,6,7,8-tetrahydro[1,2,4]triazolo[1,5-a]pyridin-2-yl]-1H-indole-5-carbonitrile]	122	118	
Cc1cc(F)ccc1C1CCCn2nc(-c3cc4cc(C#N)ccc4[nH]3)nc21 (centres unmarked) [Compound 10, 2-[8-(4-fluoro-2-methylphenyl)-5,6,7,8-tetrahydro[1,2,4]triazolo[1,5-a]pyridin-2-yl]-1H-indole-5-carbonitrile]	72	105	
Cc1cn(-c2ccc3[nH]c(-c4nc5n(n4)CCCC5c4ccccc4C(F)(F)F)cc3c2)cn1 (centres unmarked) [Compound 8, 5,6,7,8-tetrahydro-2-[5-(4-methyl-1H-imidazol-1-yl)-1H-indol-2-yl]-8-[2-(trifluoromethyl)phenyl]-[1,2,4]triazolo[1,5-a]pyridine]	41	86	
Cc1cc(F)ccc1C1CCCn2cc(-c3cc4cc(C#N)ccc4[nH]3)nc21 (centres unmarked) [Compound 64, 2-[8-(4-fluoro-2-methylphenyl)-5,6,7,8-tetrahydroimidazo[1,2-a]pyridin-2-yl]-1H-indole-5-carbonitrile]			Aβ42 (% vs Ctrl)_Mean ([1]; 30 mg/kg): 48 % vs Ctrl; Aβtotal (% vs Ctrl)_Mean ([2]; 30 mg/kg): 100 % vs Ctrl
